In ChEMBL document CHEMBL4665869, “New thiazolopyrimidine as anticancer agents: Synthesis, biological evaluation, DNA binding, molecular modeling and ADMET study” (Bioorg Med Chem Lett, 2020):
Converted amounts (≈) assume the structure as drawn. The source made the active and inactive calls. The calls are words filed in the database; no cut-off is given here.

Columns and labels:
OVCAR-4 = assay: Growth inhibition of human OVCAR-4 cells at 10 uM relative to control; type: functional; details: read-out: GI
SR = assay: Growth inhibition of human SR cells at 10 uM relative to control; type: functional
SN12C = assay: Growth inhibition of human SN12C cells at 10 uM relative to control; type: functional; details: read-out: GI
CCRF-CEM = assay: Growth inhibition of human CCRF-CEM cells at 10 uM relative to control; type: functional
NCI-H226 = assay: Growth inhibition of human NCI-H226 cells at 10 uM relative to control; type: functional
786-0 = assay: Growth inhibition of human 786-0 cells at 10 uM relative to control; type: functional; details: read-out: GI
NCI-H322M = assay: Growth inhibition of human NCI-H322M cells at 10 uM relative to control; type: functional; details: read-out: GI
SK-OV-3 = assay: Growth inhibition of human SK-OV-3 cells at 10 uM relative to control; type: functional; details: read-out: GI
HOP-62 = assay: Growth inhibition of human HOP-62 cells at 10 uM relative to control; type: functional; details: read-out: GI
COLO 205 = assay: Growth inhibition of human COLO 205 cells at 10 uM relative to control; type: functional
A498 = assay: Growth inhibition of human A498 cells at 10 uM relative to control; type: functional
TK-10 = assay: Growth inhibition of human TK-10 cells at 10 uM relative to control; type: functional; details: read-out: GI
KM12 = assay: Growth inhibition of human KM12 cells at 10 uM relative to control; type: functional; details: read-out: GI
NCI-H522 = assay: Growth inhibition of human NCI-H522 cells at 10 uM relative to control; type: functional
T47D = assay: Growth inhibition of human T47D cells at 10 uM relative to control; type: functional
HL-60(TB) = assay: Growth inhibition of human HL-60(TB) cells at 10 uM relative to control; type: functional
OVCAR-5 = assay: Growth inhibition of human OVCAR-5 cells at 10 uM relative to control; type: functional
SF-539 = assay: Growth inhibition of human SF-539 cells at 10 uM relative to control; type: functional
NCI/ADR-RES = assay: Growth inhibition of human NCI/ADR-RES cells at 10 uM relative to control; type: functional; details: read-out: GI
MOLT-4 = assay: Growth inhibition of human MOLT-4 cells at 10 uM relative to control; type: functional
DU-145 = assay: Growth inhibition of human DU-145 cells at 10 uM relative to control; type: functional; details: read-out: GI
[1] = tested on: Panel NCI-60 (60 carcinoma cell lines); assay: Growth inhibition of human NCI60 cells; type: functional
CAKI-1 = assay: Growth inhibition of human CAKI-1 cells at 10 uM relative to control; type: functional
A549 = assay: Growth inhibition of human A549 cells at 10 uM relative to control; type: functional
HCT-15 = assay: Growth inhibition of human HCT-15 cells at 10 uM relative to control; type: functional; details: read-out: GI
IGROV-1 = assay: Growth inhibition of human IGROV-1 cells at 10 uM relative to control; type: functional
NCI-H23 = assay: Growth inhibition of human NCI-H23 cells at 10 uM relative to control; type: functional; details: read-out: GI
DNA = assay: Displacement of methyl green from DNA (unknown origin) assessed as DNA intercalation after 24 hrs by colorimetric assay; type: nucleic-acid assay
SNB-19 = assay: Growth inhibition of human SNB-19 cells at 10 uM relative to control; type: functional
K562 = assay: Growth inhibition of human K562 cells at 10 uM relative to control; type: functional; details: read-out: GI
MDA-MB-435 = assay: Growth inhibition of human MDA-MB-435 cells at 10 uM relative to control; type: functional
U-251 = assay: Growth inhibition of human U-251 cells at 10 uM relative to control; type: functional; details: read-out: GI
NCI-H460 = assay: Growth inhibition of human NCI-H460 cells at 10 uM relative to control; type: functional; details: read-out: GI
SK-MEL-2 = assay: Growth inhibition of human SK-MEL-2 cells at 10 uM relative to control; type: functional
UACC-257 = assay: Growth inhibition of human UACC-257 cells at 10 uM relative to control; type: functional; details: read-out: GI
SNB-75 = assay: Growth inhibition of human SNB-75 cells at 10 uM relative to control; type: functional
LOX IMVI = assay: Growth inhibition of human LOX IMVI cells at 10 uM relative to control; type: functional; details: read-out: GI
PC-3 = assay: Growth inhibition of human PC-3 cells at 10 uM relative to control; type: functional; details: read-out: GI
SF-268 = assay: Growth inhibition of human SF-268 cells at 10 uM relative to control; type: functional
SF-295 = assay: Growth inhibition of human SF-295 cells at 10 uM relative to control; type: functional
MDA-MB-468 = assay: Growth inhibition of human MDA-MB-468 cells at 10 uM relative to control; type: functional
OVCAR-8 = assay: Growth inhibition of human OVCAR-8 cells at 10 uM relative to control; type: functional
HCC 2998 = assay: Growth inhibition of human HCC 2998 cells at 10 uM relative to control; type: functional
MDA-MB-231 = assay: Growth inhibition of human MDA-MB-231 cells at 10 uM relative to control; type: functional; details: read-out: GI
MCF7 = assay: Growth inhibition of human MCF7 cells at 10 uM relative to control; type: functional; details: read-out: GI
UACC-62 = assay: Growth inhibition of human UACC-62 cells at 10 uM relative to control; type: functional
Hs-578T = assay: Growth inhibition of human Hs-578T cells at 10 uM relative to control; type: functional
RPMI-8226 = assay: Growth inhibition of human RPMI-8226 cells at 10 uM relative to control; type: functional
HT-29 = assay: Growth inhibition of human HT-29 cells at 10 uM relative to control; type: functional; details: read-out: GI
SK-MEL-5 = assay: Growth inhibition of human SK-MEL-5 cells at 10 uM relative to control; type: functional
RXF 393 = assay: Growth inhibition of human RXF 393 cells at 10 uM relative to control; type: functional
BT-549 = assay: Growth inhibition of human BT-549 cells at 10 uM relative to control; type: functional
SW-620 = assay: Growth inhibition of human SW-620 cells at 10 uM relative to control; type: functional; details: read-out: GI
HCT-116 = assay: Growth inhibition of human HCT-116 cells at 10 uM relative to control; type: functional; details: read-out: GI
ACHN = assay: Growth inhibition of human ACHN cells at 10 uM relative to control; type: functional
UO-31 = assay: Growth inhibition of human UO-31 cells at 10 uM relative to control; type: functional; details: read-out: GI
Malme-3M = assay: Growth inhibition of human Malme-3M cells at 10 uM relative to control; type: functional
HOP-92 = assay: Growth inhibition of human HOP-92 cells at 10 uM relative to control; type: functional
SK-MEL-28 = assay: Growth inhibition of human SK-MEL-28 cells at 10 uM relative to control; type: functional
M14 = assay: Growth inhibition of human M14 cells at 10 uM relative to control; type: functional

COc1cccc2c1C(=O)c1c(O)c3c(c(O)c1C2=O)C[C@@](O)(C(=O)CO)C[C@@H]3O[C@H]1C[C@H](N)[C@H](O)[C@H](C)O1 [DOXORUBICIN]
inhibition of growth at 10 µM (OVCAR-4): 85.9%
growth inhibition (GI) (SR): Active
inhibition of growth at 10 µM (SN12C): 88%
growth inhibition (GI) (CCRF-CEM): Active
growth inhibition (GI) (NCI-H226): Active
inhibition of growth at 10 µM (786-0): 95.5%
inhibition of growth at 10 µM (NCI-H322M): 86.1%
inhibition of growth at 10 µM (SK-OV-3): 86.2%
inhibition of growth at 10 µM (HOP-62): 93.1%
growth inhibition (GI) (COLO 205): Active
growth inhibition (GI) (A498): Active
inhibition of growth at 10 µM (TK-10): 74.6%
inhibition of growth at 10 µM (KM12): 95.8%
growth inhibition (GI) (NCI-H522): Active
growth inhibition (GI) (T47D): Active
growth inhibition (GI) (HL-60(TB)): Active
growth inhibition (GI) (OVCAR-5): Active
growth inhibition (GI) (SF-539): Active
inhibition of growth at 10 µM (NCI/ADR-RES): 95.1%
growth inhibition (GI) (MOLT-4): Active
inhibition of growth at 10 µM (DU-145): 86.8%
GI50 [1]: 150 nM
TGI [1]: 2480 nM
growth inhibition (GI) (CAKI-1): Active
growth inhibition (GI) (A549): Active
inhibition of growth at 10 µM (HCT-15): 84.8%
growth inhibition (GI) (IGROV-1): Active
inhibition of growth at 10 µM (NCI-H23): 66.7%
IC50 (DNA): 31.27 µg/mL (≈ 57.5 µM)
growth inhibition (GI) (SNB-19): Active
inhibition of growth at 10 µM (K562): 97.9%
growth inhibition (GI) (MDA-MB-435): Active
inhibition of growth at 10 µM (U-251): 90.8%
inhibition of growth at 10 µM (NCI-H460): 99.4%
growth inhibition (GI) (SK-MEL-2): Active
inhibition of growth at 10 µM (UACC-257): 96.5%
growth inhibition (GI) (SNB-75): Active
inhibition of growth at 10 µM (LOX IMVI): 94.3%
inhibition of growth at 10 µM (PC-3): 98.7%
growth inhibition (GI) (SF-268): Active
growth inhibition (GI) (SF-295): Active
growth inhibition (GI) (MDA-MB-468): Active
growth inhibition (GI) (OVCAR-8): Active
growth inhibition (GI) (HCC 2998): Active
inhibition of growth at 10 µM (MDA-MB-231): 96.2%
inhibition of growth at 10 µM (MCF7): 96.6%
growth inhibition (GI) (UACC-62): Active
growth inhibition (GI) (Hs-578T): Active
growth inhibition (GI) (RPMI-8226): Active
inhibition of growth at 10 µM (HT-29): 95.3%
growth inhibition (GI) (SK-MEL-5): Active
growth inhibition (GI) (RXF 393): Active
growth inhibition (GI) (BT-549): Active
inhibition of growth at 10 µM (SW-620): 98.1%
inhibition of growth at 10 µM (HCT-116): 97.2%
growth inhibition (GI) (ACHN): Active
inhibition of growth at 10 µM (UO-31): 96%
growth inhibition (GI) (Malme-3M): Active
growth inhibition (GI) (HOP-92): Active
growth inhibition (GI) (SK-MEL-28): Active
growth inhibition (GI) (M14): Active
